Measurements published in patent US7423015B1, “Antihelminthic drugs as a treatment for hyperproliferative diseases” (Board of Regents, The University of Texas System, priority 2001, dated 2008).

Experiments:
[1] = system: p53 protein; test: p53 induction, immunoblot analysis of nuclear extracts; type: cell-based, human; conditions: H460; 0.05 μg/ml, exposure 1 to 24 hr
Method: Cells were grown in 6-cm dishes, cultured, and treated as described above. To prepare the whole-cell lysates, the medium was removed and cells were washed twice with ice-cold Tris-buffered saline (TBS) (150 mM NaCl, 10 mM Tris; pH 7.6) and lysed with 0.5 ml of lysis buffer (10 mM Tris, 150 mM NaCl, 1% Triton X-100, 5 mM EDTA, 25 mM glycerphosphate, 1 mM phenylmethylsulphonyl fluoride (PMSF), 2 mM benzamidine, […], and 1 mM sodium orthovanadate) for 15 min. The lysed cells were then transferred to 1.5 ml microtubes, centrifuged at 15,000×g for 10 min at 4° C., and the supernatants collected mixed with Laemmli's sample buffer and subjected to western blot analysis as described elsewhere (Nare et al., 1994). Blots were probed with anti-p53 monoclonal antibody Bp53-12 (Santa Cruz Biotechnology, Inc.) and the immunocomplex was detected by the Enhanced Chemiluminescence kit according to the manufacturer's directions (Amersham).
(§1) Cell extracts were prepared from H460 cells exposed to 0.05 μg/ml FZ or MZ for various durations (1 to 24 hr). The effect of FZ and MZ on the nuclear accumulation of p53 appeared to be gradual and was not significant within the first hour of exposure. […] The appearance of p53 in response to drug treatment also coincided with the initiation of apoptosis, which was detectable by 24 hr, as well as shown earlier by TdT FACS analysis. […] Total RNA was extracted and […] was used for the analysis. p53 protein was detected by immunoblot analysis.

[2] = system: p53 protein; test: as above; type: cell-based, human; set-up: p53 Induction: dose or concentration left out as unconfirmed
[3] = system: p21/WAF1 transcript; test: Northern blot analysis in H460 cells; type: cell-based, human; conditions: at the time the p53 level peaked
Method: (§2) Total RNA was isolated from the subconfluent cultures using the guanidinium thisocyanate method (Lacey, 1988). After this 20 μg of the RNA was electrophoresed in a denaturing 1.2% agarose/morpholinepropanesulfonic acid (MOPS)-formaldehyde gel, transferred onto a nitrocellulose membrane, and hybridized to a ^32P-radiolabeled p53 cDNA probe, as described elsewhere (Lubiga and Prichard, 1990). The ^32P-labeled probes were generated using random primers (>8×10^8 cpm/μg). Blots were washed at 65° C. in 2× standard saline citrate (SSC) for 30 min and then washed twice at 60° C. in 0.1% sodium dodecyl sulfate (SDS) and 0.1×SSC. The cDNA probes used were 1.2-kb human p53 cDNA and an 800-bp fragment of human p21 cDNA.
as §1

[4] = system: p53 mRNA; test: Northern blot analysis in H460 cells; type: cell-based, human; conditions: 0.05 μg/ml, 24 hr
Method: as §2, §1

[5] = system: SiHa; test: Cell viability, trypan blue cell count assay; type: cell-based; conditions: Homo sapiens, SiHa (cervical, wild-type p53 inactivated by E6), 100% = untreated cells
[6] = system: SW480; test: Cell viability, trypan blue cell count assay; type: cell-based; set-up: dose or concentration left out as unconfirmed; conditions: Homo sapiens, SW480, read-out: % Cell Viability
Method: (§3) All cell lines were grown in RPMI 1640 medium supplemented with 5% fetal bovine serum and 5% CO2. All experiments were done when the cells were 70% confluent. For cell growth measurements, 5×10^4 cells were plated in each well of six-well plates. Control and BZ-treated (0.05 μg/ml) cells were trypsinized and counted using a hemocytometer. Experiments were done in triplicate and the mean and standard deviation were determined by standard methods.
(§4) To further investigate the relationship between the induction of functional p53 and the subsequent apoptosis mediated by these drugs, the inventors posited that if BZs require wild-type p53 in order to exert their effect, then fenbendazole and mebendazole would not be cytotoxic to the many tumor lines producing a mutated p53 protein. To investigate this possibility, human cell lines derived from NSCLC origins of differing p53 status were further analyzed by a 5-day cell growth assay. The cells were plated onto a six-well plate, and the viability of the cells was determined by trypan blue exclusion. Cells were counted on a hemocytometer. The values shown are the means ±standard deviation of triplicate samples. Duplicate experiments gave similar results. H322 is a human lung adenocarcinoma line that produces a mutant p53 protein. […] However, fenbendazole and mebendazole induced nuclear accumulation of p53 only in the H460 cell line, which carries wild-type p53 genes. […] Cells were exposed to FZ (filled bar) or MZ (hatched bar) for 24 hr. A concentration of 0.05 μg/ml FZ and MZ was used. An immunoblot analysis of nuclear p53 was also performed to determine whether these drugs induced the production of p53. Equal amounts of protein extracts from each cell line before and after treatment were used for this analysis.

[7] = system: MDA 231; test: Cell viability, trypan blue cell count assay; type: cell-based; set-up: dose or concentration left out as unconfirmed; conditions: Homo sapiens, MDA-MB-231, read-out: % Cell Viability
Method: as §3, §4

[8] = system: H322; test: Cell viability, trypan blue cell count assay; type: cell-based; set-up: dose or concentration left out as unconfirmed; conditions: Homo sapiens, NCI-H322, read-out: % Cell Viability
Method: as §3, §4

[9] = system: RD; test: Cell viability, trypan blue cell count assay; type: cell-based; set-up: dose or concentration left out as unconfirmed; conditions: Homo sapiens, read-out: % Cell Viability
Method: as §3, §4

COC(=O)Nc1nc2ccc(Sc3ccccc3)cc2[nH]1 [Fenbendazole, methy 5-(phenylthio)-2-benzimidazole-2-carbamate]
time at which nuclear accumulation of p53 became significantly detectable [1]: about 16 hr | time at which nuclear accumulation of p53 peaked [1]: 24 h | p53 Induction ([2]; H226Br): No | p53 Induction ([2]; H322): No | p53 Induction ([2]; H358): No | concentration at which induction of p53 became detectable ([2]; H460): 0.01 µg/mL | p53 Induction ([2]; H460): Yes | p53 Induction ([2]; H549): Yes | p53 Induction ([2]; H596): No | p53 Induction ([2]; H1299): No | p53 Induction ([2]; HeLa): No | induction of p53 production ([2]; HeLa (HPV-18) and SiHa (HPV-16) cells, 48 h, total cell proteins): no induction | p53 Induction ([2]; Hep 3B): No | p53 Induction ([2]; MCF-7): Yes | p53 Induction ([2]; MDA 231): No | p53 Induction ([2]; RD): No | p53 Induction ([2]; SK-OV-433): Yes | p53 Induction ([2]; SW480): No | p53 Induction ([2]; Saos-2): No | p53 Induction ([2]; SiHa): No | level of the p21/WAF1 transcript [3]: significantly increased | p53 mRNA levels [4]: no significant changes | viability at 0.05 µg/mL [5]: 94.5 ± 7.4% | viability [6]: 70.6 ± 7.6% | viability [7]: 65.3 ± 5% | viability [8]: 65.9 ± 4.9% | viability [9]: 78.7 ± 12%

COC(=O)Nc1nc2ccc(C(=O)c3ccccc3)cc2[nH]1 [Mebendazole, Methyl 5-benzoylbenzimidazole-2-carbamate]
time at which nuclear accumulation of p53 became significantly detectable [1]: about 16 hr | time at which nuclear accumulation of p53 peaked [1]: 24 h | p53 Induction ([2]; H226Br): No | p53 Induction ([2]; H322): No | p53 Induction ([2]; H358): No | p53 Induction ([2]; H460): Yes | p53 Induction ([2]; H549): Yes | p53 Induction ([2]; H596): No | p53 Induction ([2]; H1299): No | p53 Induction ([2]; HeLa): No | p53 Induction ([2]; Hep 3B): No | p53 Induction ([2]; MCF-7): Yes | p53 Induction ([2]; MDA 231): No | p53 Induction ([2]; RD): No | p53 Induction ([2]; SK-OV-433): Yes | p53 Induction ([2]; SW480): No | p53 Induction ([2]; Saos-2): No | p53 Induction ([2]; SiHa): No | level of the p21/WAF1 transcript [3]: significantly increased | p53 mRNA levels [4]: no significant changes | viability at 0.05 µg/mL [5]: 91.3 ± 8.6% | viability [6]: 63.6 ± 13.3% | viability [7]: 66.2 ± 15.8% | viability [8]: 68.5 ± 3.7% | viability [9]: 72.2 ± 2.8%
